From US5137711A, “Paramagnetic DTPA and EDTA alkoxyalkylamide complexes as MRI agents” (Mallickrodt Medical, Inc., priority 1989, dated 1992)

Test system: ICR mice
Experiment: acute intravenous toxicity in ICR mice
Assay type: in vivo
Description: The acute intravenous toxicity of the compound of Example II was determined as follows: ICR mice, at 1 to 4 per dose level, received single intravenous injections of the test substance via a lateral tail vein at the rate of approximately 1 ml/minute. The test substances were at concentrations chosen to result in dose volumes of 5 to 75 ml/kg body weight. Dosing began at a volume of 10 ml/kg. Dose adjustments up or down were made to closely bracket the estimated LD50 with 4 animals per group (2 males and 2 females). Observations of the mice were recorded at times 0, 0.5, 1,2,4 and 24 hours and once daily thereafter for up to 7 days post injection. On the 7th day post injection, the mice were euthanized, weighed and necropsied. Abnormal tissues were noted. At this time a decision was made as to whether any histopathology was to be performed and whether or not the tissues should be retained. Necropsies were also performed on mice expiring after 24 hours post-injection, except for dead mice found on the weekends The LD50 values, along with 95% CI were calculated using a modified Behrens-Reed-Meunch method. The results for the complex of Example II are reported below:
Sex and Weight Range of Mice: Males(18.0-20.3 g) Females (19.0-21.7 g)

What does the source list for `COCCNC(=O)CN(CCN(CCN(CC(=O)[O-])CC(=O)NCCOC)CC(=O)[O-])CC(=O)[O-].[Gd+3]` [Example II, {N,N"-Bis[N-(2-methoxyethyl)-carbamoylmethyl]diethylenetriamine-N,N',N"-triaceto} gadolinium (III)]?
Body weight of surviving mice (7-day post-injection period, i.v.): failed to gain weight; i.v. toxicity (overall, in words) (preliminary tests, mice): low order of i.v. toxicity
